Experimental data as given in patent publication US9278131B2, “Process for lowering the viscosity of highly concentrated protein solutions” (ADOCIA, priority 2012, dated 2016).
One block for each compound: values may come before it.

How the values were obtained:
bevacizumab = assay: viscosity of highly concentrated bevacizumab solution, cone/plate rheometer; format: physicochemical; details: Table I; bevacizumab 250 mg/mL, 150 mM additive, pH 6.2 ± 0.2, 21° C.
Description: (§1) For this example, three solutions of monoclonal antibodies, i.e. a solution of bevacizumab (an IgG1 sold under the name Avastin® by Genentech/Hoffmann La Roche), a solution of infliximab (an IgG1/K sold under the name Remicade® by Schering-Plough), a solution of rituximab (an IgG1/K sold under the name mAbThera® by Hoffmann La Roche) and a solution of fusion protein, i.e. a solution of abatacept (IgG1-CTLA4 sold under the name Orencia® by Bristol-Meyers Squibb), were concentrated by ultrafiltration on Amicon® Ultra-15 filtration units with a cutoff threshold of 50 kDa.
The protein concentration of each concentrated solution was measured by UV spectroscopy (absorbance at 280 nm) after gravimetric dilution of the samples. […]
(§2) The effect of RVs 2 and 9 on the viscosity of these four highly concentrated therapeutic protein solutions was then evaluated comparatively with that of Arg and NaCl. To do this, the viscosity was measured using a cone/plate rheometer (TA Instrument, AR 2000 Ex, geometry of diameter 20 mm, cone of 0.5131°, solvent trap filled with water) at a temperature of 21° C. and in flow sweep mode with shear rates of between 5000 and 50 s^−1 (3 points per decade—steady-state sensing). […]

rituximab = assay: viscosity of highly concentrated rituximab solution, cone/plate rheometer; format: physicochemical; details: rituximab 196 mg/mL, 150 mM additive
Description: as §1
(§3) The protein concentration of each concentrated solution was measured by UV spectroscopy (absorbance at 280 nm) after gravimetric dilution of the samples.
The solutions of rituximab (10 mg/mL) and of bevacizumab (25 mg/mL) were concentrated, respectively, to 320 mg/mL and 240 mg/mL.
(§4) The effect of RVs 2 and 9 on the viscosity of these four highly concentrated therapeutic protein solutions was then evaluated comparatively with that of Arg and NaCl.
(§5) The samples thus prepared were stored at room temperature and were analyzed using the rheometer within 24 hours of their preparation.
(§6) The pH of these formulations is the same as that of the commercial formulation of the corresponding therapeutic protein.
(§7) In this study, the highly concentrated infliximab and rituximab solutions used are the same as those which were prepared and used previously. […] The pH of these formulations is the same as that of the corresponding therapeutic protein formulation, i.e. 7.2±0.2 for infliximab, and 6.5±0.2 for rituximab.

abatacept = biological target: T1, abatacept (Homo sapiens, UniProt P16410); assay: viscosity of highly concentrated abatacept (fusion protein) solution, cone/plate rheometer; format: physicochemical; details: Table I; abatacept 230 mg/mL, 150 mM additive, pH 7.5 ± 0.5, 21° C.
T1 construct: a fragment of a protein of interest which is the extracellular domain of the receptor of protein CTLA-4; purchased Bristol-Meyers Squibb (Orencia)
Description: as §1, §3, §2

infliximab [1] = assay: viscosity of highly concentrated infliximab solution, cone/plate rheometer at 21° C.; format: physicochemical; details: for % viscosity reduction relative to the control infliximab solution: Table V; for % viscosity reduction relative to the control infliximab solution / viscosity lowering on average, irrespective of the infliximab concentration: additive at 150 mM; for viscosity lowering on average, irrespective of the infliximab concentration: average over infliximab 80-110 mg/mL
Description: as §1, §3, §4, §5, §6, §7
The highly concentrated infliximab solution used is the same as that which was prepared and used previously. The “protein+RV” formulations were prepared in the presence of concentrations increasing from 0 to 200 mM of Arg or RV 9. The pH of these formulations is the same as that of the commercial infliximab formulation, i.e. 7.2±0.2.
The highly concentrated infliximab solution used is the same as that which was prepared and used previously.
The pH of these formulations is the same as that of the commercial infliximab formulation, i.e. 7.2±0.2.
The highly concentrated infliximab solution used was prepared in the same manner as that used previously. […] The pH of these formulations is the same as that of the commercial infliximab formulation, i.e. 7.2±0.2.

infliximab [2] = assay: viscosity of highly concentrated infliximab formulation, cone/plate rheometer at 25° C. (example 7); format: physicochemical; details: Table VII; infliximab 125 mg/mL, 150 mM additive, pH 7.2 ± 0.2, 25° C.
Description: For this example, two monoclonal antibody formulations, i.e. infliximab and trastuzumab (an IgG1/κ sold under the name Herceptin® by Genentech) were concentrated by ultrafiltration on Amicon® Ultra-50 centrifugal filtration units with a cutoff threshold of 50 kDa. The protein concentration of each concentrated solution was measured by UV spectroscopy (absorbance at 280 nm) after gravimetric dilution of the samples. […]
(§8) The effect of RVs 2 and 11 on the viscosity of these two highly concentrated therapeutic protein formulations was then evaluated comparatively to that of Arg and NaCl. To do this, the viscosity was measured using a cone/plate rheometer (TA Instrument, AR 2000 Ex, geometry of diameter 20 mm, cone of 0.5131°, solvent trap filled with water) at a temperature of 25° C. and in flow sweep mode with shear rates of between 5000 and 50 s^−1 (3 points per decade—steady-state sensing).
For this example, the “protein+RV” formulations were prepared by mixing a solution of RV at about 1 M obtained in example 1 with one of the concentrated infliximab and trastuzumab formulations prepared previously and the corresponding buffer so as to reach a final RV concentration of 150 mM and a final protein concentration of 125 mg/mL for infliximab and 200 mg/mL for trastuzumab. […]

trastuzumab [3] = assay: viscosity of highly concentrated trastuzumab formulation, cone/plate rheometer at 25° C. (example 7); format: physicochemical; details: Table VII; trastuzumab 200 mg/mL, 150 mM additive, pH 6 ± 0.2, 25° C.
Description: For this example, two monoclonal antibody formulations, i.e. infliximab and trastuzumab (an IgG1/κ sold under the name Herceptin® by Genentech) were concentrated by ultrafiltration on Amicon® Ultra-50 centrifugal filtration units with a cutoff threshold of 50 kDa. The protein concentration of each concentrated solution was measured by UV spectroscopy (absorbance at 280 nm) after gravimetric dilution of the samples.
Once reconstituted, the infliximab and trastuzumab formulations were concentrated, respectively, to 212 mg/mL and 277 mg/mL.
as §8, with “sensing). […]” for “sensing).”

trastuzumab [4] = details: phenylalanine 0.2%, i.e. 12 mM; trastuzumab 300 mg/mL; WO 2013/063 510; cited from earlier work
anti-IL5 antibody = details: tyrosine 0.004% w/v, i.e. 0.2 mM; WO 2012/141 978; cited from earlier work
[5] = Table I, infliximab 107 mg/mL, 150 mM additive, pH 7.2 ± 0.2, 21° C.
[6] = Table II, infliximab 107 mg/mL, 150 mM additive, pH 7.2 ± 0.2
[7] = Table IV, infliximab 107 mg/mL, additive 25 mM, pH 7.2 ± 0.2
[8] = Table IV, infliximab 107 mg/mL, additive 50 mM, pH 7.2 ± 0.2
[9] = Table IV, infliximab 107 mg/mL, additive 100 mM, pH 7.2 ± 0.2
[10] = Table IV, infliximab 107 mg/mL, additive 150 mM, pH 7.2 ± 0.2
[11] = Table IV, infliximab 107 mg/mL, additive 200 mM, pH 7.2 ± 0.2
[12] = infliximab 80 mg/mL, pH 7.2 ± 0.2
[13] = infliximab 90 mg/mL, pH 7.2 ± 0.2
[14] = infliximab 100 mg/mL, pH 7.2 ± 0.2
[15] = infliximab 110 mg/mL, pH 7.2 ± 0.2

T1 sequence (P16410 with tags, fused parts or gaps limits assumed): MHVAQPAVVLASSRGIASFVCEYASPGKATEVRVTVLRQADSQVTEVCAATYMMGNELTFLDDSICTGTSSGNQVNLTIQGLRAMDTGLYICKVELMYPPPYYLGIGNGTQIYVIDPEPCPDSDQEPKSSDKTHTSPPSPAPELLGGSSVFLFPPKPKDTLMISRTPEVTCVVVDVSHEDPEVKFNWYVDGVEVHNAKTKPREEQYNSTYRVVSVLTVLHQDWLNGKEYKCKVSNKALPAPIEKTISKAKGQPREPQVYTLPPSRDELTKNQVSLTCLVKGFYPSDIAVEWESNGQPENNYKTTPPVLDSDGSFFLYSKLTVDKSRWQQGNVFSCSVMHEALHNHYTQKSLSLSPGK

Compound: Cl.N=C(N)NCCC[C@H](N)C(=O)O [Arg, L-arginine hydrochloride salt]
% viscosity reduction relative to the control “protein alone” (bevacizumab): 26% | % viscosity reduction relative to the control “protein alone” (rituximab; Table I, pH 6.5 ± 0.2, 21° C.): 58% | % viscosity reduction relative to the control “protein alone” (rituximab; Table III, pH 6.5 ± 0.2): 58% | % viscosity reduction relative to the control “protein alone” (abatacept): 31% | % viscosity reduction relative to the control “protein alone” (infliximab [1]; [5]): 32% | % viscosity reduction relative to the control “protein alone” (infliximab [1]; [6]): 32% | % viscosity reduction relative to the control “protein alone” (infliximab [1]; [7]): 9% | % viscosity reduction relative to the control “protein alone” (infliximab [1]; [8]): 13% | % viscosity reduction relative to the control “protein alone” (infliximab [1]; [9]): 9% | % viscosity reduction relative to the control “protein alone” (infliximab [1]; [10]): 31% | % viscosity reduction relative to the control “protein alone” (infliximab [1]; [11]): 34% | % viscosity reduction relative to the control infliximab solution (infliximab [1]; [12]): 25% | % viscosity reduction relative to the control infliximab solution (infliximab [1]; [13]): 30% | % viscosity reduction relative to the control infliximab solution (infliximab [1]; [14]): 39% | % viscosity reduction relative to the control infliximab solution (infliximab [1]; [15]): 22% | viscosity lowering on average, irrespective of the infliximab concentration (infliximab [1]): about 29% | % of viscosity reduction relative to the control “protein alone” (infliximab [2]): 11% | % of viscosity reduction relative to the control “protein alone” (trastuzumab [3]): 56%

Compound: [Cl-].[Na+] [NaCl, sodium chloride]
% viscosity reduction relative to the control “protein alone” (bevacizumab): ≦0% | % viscosity reduction relative to the control “protein alone” (rituximab; Table I, pH 6.5 ± 0.2, 21° C.): 21% | % viscosity reduction relative to the control “protein alone” (rituximab; Table III, pH 6.5 ± 0.2): 21% | % viscosity reduction relative to the control “protein alone” (abatacept): 7% | % viscosity reduction relative to the control “protein alone” (infliximab [1]; [5]): ≦0% | % viscosity reduction relative to the control “protein alone” (infliximab [1]; [6]): ≦0% | % of viscosity reduction relative to the control “protein alone” (infliximab [2]): ≦0% | % of viscosity reduction relative to the control “protein alone” (trastuzumab [3]): 38%

% viscosity reduction relative to the control “protein alone” (rituximab; Table III, pH 6.5 ± 0.2): 43% | % viscosity reduction relative to the control “protein alone” (infliximab [1]; [6]): 56%
Compound: Cl.NC(Cc1ccccc1)C(=O)NCCO (stereo not drawn) [RV 2, (2S-2-amino(3-phenylpropanoyl)amino)-ethanol hydrochloride salt]

Compound: Cl.N[C@H](CO)Cc1ccccc1 [RV 4, (S)-(−)-2-amino-3-phenyl-1-propanol hydrochloride salt]
% viscosity reduction relative to the control “protein alone” (rituximab; Table III, pH 6.5 ± 0.2): 37% | % viscosity reduction relative to the control “protein alone” (infliximab [1]; [6]): 36%

Compound: C[N+](C)(C)Cc1ccccc1.[Cl-] [RV 5, benzyltrimethylammonium chloride]
% viscosity reduction relative to the control “protein alone” (rituximab; Table III, pH 6.5 ± 0.2): 38% | % viscosity reduction relative to the control “protein alone” (infliximab [1]; [6]): 49%

Compound: Cl.NCCc1ccccc1 [RV 6, 2-phenylethylamine hydrochloride salt]
% viscosity reduction relative to the control “protein alone” (rituximab; Table III, pH 6.5 ± 0.2): 39% | % viscosity reduction relative to the control “protein alone” (infliximab [1]; [6]): 38%

Compound: Cl.NCCc1ccc(O)c(O)c1 [RV 7, dopamine hydrochloride salt]
% viscosity reduction relative to the control “protein alone” (rituximab; Table III, pH 6.5 ± 0.2): 39% | % viscosity reduction relative to the control “protein alone” (infliximab [1]; [6]): 38%

% viscosity reduction relative to the control “protein alone” (rituximab; Table III, pH 6.5 ± 0.2): 52% | % viscosity reduction relative to the control “protein alone” (infliximab [1]; [6]): 46%
Compound: Cl.NCCOc1ccccc1 [RV 8, 2-phenoxyethylamine hydrochloride salt]

% viscosity reduction relative to the control “protein alone” (rituximab; Table III, pH 6.5 ± 0.2): 48% | % viscosity reduction relative to the control “protein alone” (infliximab [1]; [6]): 52% | % viscosity reduction relative to the control “protein alone” (infliximab [1]; [7]): 19% | % viscosity reduction relative to the control “protein alone” (infliximab [1]; [8]): 31% | % viscosity reduction relative to the control “protein alone” (infliximab [1]; [9]): 41% | % viscosity reduction relative to the control “protein alone” (infliximab [1]; [10]): 44% | % viscosity reduction relative to the control “protein alone” (infliximab [1]; [11]): 56% | % viscosity reduction relative to the control infliximab solution (infliximab [1]; [12]): 50% | % viscosity reduction relative to the control infliximab solution (infliximab [1]; [13]): 52% | % viscosity reduction relative to the control infliximab solution (infliximab [1]; [14]): 55% | % viscosity reduction relative to the control infliximab solution (infliximab [1]; [15]): 49% | viscosity lowering on average, irrespective of the infliximab concentration (infliximab [1]): about 52% | concentration sufficient to obtain a viscosity reduction equivalent to that obtained using Arg at 150 mM (infliximab [1]; infliximab 107 mg/mL): 50000 µM | efficiency in viscosity reduction relative to Arg (infliximab [1]; infliximab 107 mg/mL, at 100 mM): about 4 times | efficiency in viscosity reduction relative to Arg (infliximab [1]; infliximab 107 mg/mL, at 150 mM): twice as efficient as Arg
Compound: Cl.NC(=O)[C@@H](N)Cc1ccccc1 [RV 9, L-phenylalaninamide hydrochloride salt]

Compound: N[C@@H](Cc1ccccc1)C(=O)O [phenylalanine]
increase of the viscosity of a trastuzumab formulation (trastuzumab [4]): 83%

Compound: N[C@@H](Cc1ccc(O)cc1)C(=O)O [tyrosine]
increase of the viscosity of the anti-IL5 antibody solution (anti-IL5 antibody): 44%
